Measurements: publication doi:10.1101/2024.09.25.614871v2, “CLYBL averts methylmalonyl-CoA mutase inhibition and loss of vitamin B12 by repairing malyl-CoA” (biorxiv, 2024)
Each block holds one compound with its values, some of them ahead of it.

Legend:
[1] = biological target: T1, SUCL (GDP-forming), SUCLG1:SUCLG2 complex (Homo sapiens, UniProt P53597+Q96I99); experiment: PK/LDH-coupled NADH consumption; assay type: biochemical; details: 0.6 mM GTP, 0.1 mM CoA, 7 mM MgCl2, pH 7.5, 30 °C
T1 construct: SUCLG1 aa 28-333 with N-terminal His6, SUCLG2 aa 38-420 with C-terminal His6, co-expressed in E. coli, tags kept
Text: PK/LDH-coupled NADH consumption on SUCL (GDP-forming), SUCLG1:SUCLG2 complex

[2] = biological target: T2, SUCL (ADP-forming), SUCLG1:SUCLA2 complex (Homo sapiens, UniProt P53597+Q9P2R7); experiment: PK/LDH-coupled NADH consumption; assay type: biochemical; details: 0.6 mM ATP, 0.1 mM CoA, 7 mM MgCl2, pH 7.5, 30 °C
T2 construct: SUCLG1 aa 28-333 with N-terminal His6, SUCLA2 aa 53-463 with C-terminal His6, co-expressed in E. coli, tags kept
Text: PK/LDH-coupled NADH consumption on SUCL (ADP-forming), SUCLG1:SUCLA2 complex

[3] = biological target: T3, methylmalonyl-CoA mutase (MCM) (Homo sapiens, UniProt P22033); experiment: absorbance spectrum of loaded enzyme; assay type: binding; details: 12.5 μM MCM homodimer, 5 μM adenosylcobalamin, pH 7.5, 30 °C
T3 construct: gene MMUT
T3 sequence (P22033 34-750): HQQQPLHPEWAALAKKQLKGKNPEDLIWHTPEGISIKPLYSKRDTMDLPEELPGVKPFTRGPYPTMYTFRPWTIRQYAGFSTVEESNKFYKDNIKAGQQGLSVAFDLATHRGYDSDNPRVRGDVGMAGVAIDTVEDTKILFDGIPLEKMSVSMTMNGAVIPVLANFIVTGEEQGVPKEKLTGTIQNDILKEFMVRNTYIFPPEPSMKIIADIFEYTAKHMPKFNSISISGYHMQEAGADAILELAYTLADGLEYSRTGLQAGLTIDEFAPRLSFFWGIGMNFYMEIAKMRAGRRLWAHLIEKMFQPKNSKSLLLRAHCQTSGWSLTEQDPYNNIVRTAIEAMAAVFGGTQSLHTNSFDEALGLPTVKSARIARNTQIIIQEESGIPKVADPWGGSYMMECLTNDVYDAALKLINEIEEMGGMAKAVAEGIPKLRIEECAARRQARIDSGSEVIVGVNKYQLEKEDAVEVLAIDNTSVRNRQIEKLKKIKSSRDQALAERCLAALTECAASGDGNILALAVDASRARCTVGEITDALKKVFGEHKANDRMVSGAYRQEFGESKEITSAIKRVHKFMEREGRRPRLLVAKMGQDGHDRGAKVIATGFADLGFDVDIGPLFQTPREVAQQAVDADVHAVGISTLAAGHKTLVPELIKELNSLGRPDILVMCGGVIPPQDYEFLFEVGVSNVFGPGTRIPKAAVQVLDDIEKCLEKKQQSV

[4] = biological target: T4, citrate synthase (CS) (Sus scrofa, UniProt P00889); experiment: Ellman's reagent at […] nm, inhibition of malyl-CoA thioesterase; assay type: biochemical; details: read-out: % inhibition at highest concentration (100 μM)
T4 construct: commercial native enzyme from porcine heart
T4 sequence (P00889 28-464): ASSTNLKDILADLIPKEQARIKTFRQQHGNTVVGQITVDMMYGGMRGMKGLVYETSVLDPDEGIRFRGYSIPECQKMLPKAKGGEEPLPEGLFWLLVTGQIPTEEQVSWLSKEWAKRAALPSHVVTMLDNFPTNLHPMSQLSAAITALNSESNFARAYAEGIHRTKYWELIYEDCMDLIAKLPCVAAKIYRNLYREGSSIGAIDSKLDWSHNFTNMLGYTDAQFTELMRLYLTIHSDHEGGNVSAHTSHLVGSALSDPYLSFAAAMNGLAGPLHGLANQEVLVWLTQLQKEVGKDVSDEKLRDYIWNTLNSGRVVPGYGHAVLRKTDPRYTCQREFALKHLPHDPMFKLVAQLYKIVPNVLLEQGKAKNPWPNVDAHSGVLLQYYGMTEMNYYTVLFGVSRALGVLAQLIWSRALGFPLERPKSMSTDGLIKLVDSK

[5] = biological target: T5, CLYBL (Homo sapiens, UniProt Q8N0X4, I241V); experiment: Ellman's reagent at […] nm (thioesterase); assay type: biochemical; details: pH 7.5, 37 °C, 2 mM MgCl2
T5 construct: full-length ORF (340 aa precursor), natural variant Ile241Val, C-terminal Myc-DKK (FLAG) tag, expressed in HEK293FT, anti-FLAG purified
T5 sequence (Q8N0X4 23-340 I241V): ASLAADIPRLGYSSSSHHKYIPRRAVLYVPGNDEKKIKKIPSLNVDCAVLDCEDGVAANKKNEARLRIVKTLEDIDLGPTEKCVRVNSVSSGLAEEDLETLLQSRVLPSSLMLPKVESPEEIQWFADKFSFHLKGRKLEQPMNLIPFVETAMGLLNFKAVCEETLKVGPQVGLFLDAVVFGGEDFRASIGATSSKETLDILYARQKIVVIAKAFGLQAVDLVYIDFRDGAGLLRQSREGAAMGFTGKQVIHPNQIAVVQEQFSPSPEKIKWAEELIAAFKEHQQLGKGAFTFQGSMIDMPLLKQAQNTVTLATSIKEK

[6] = biological target: T3, methylmalonyl-CoA mutase (MCM); experiment: succinyl-CoA formation by LC-HRMS/MS; assay type: biochemical; details: read-out: % residual activity at 50 μM
[7] = biological target: T3, methylmalonyl-CoA mutase (MCM); experiment: succinyl-CoA formation by LC-HRMS/MS; assay type: biochemical; details: 10 min preincubation, 0.24 μM adenosylcobalamin, 65 μM methylmalonyl-CoA, pH 7.5, 30 °C; coenzyme inactivation to cob(II)alamin; itaconyl-CoA 27% pure, concentrations corrected

T2 sequence (P53597 28-333): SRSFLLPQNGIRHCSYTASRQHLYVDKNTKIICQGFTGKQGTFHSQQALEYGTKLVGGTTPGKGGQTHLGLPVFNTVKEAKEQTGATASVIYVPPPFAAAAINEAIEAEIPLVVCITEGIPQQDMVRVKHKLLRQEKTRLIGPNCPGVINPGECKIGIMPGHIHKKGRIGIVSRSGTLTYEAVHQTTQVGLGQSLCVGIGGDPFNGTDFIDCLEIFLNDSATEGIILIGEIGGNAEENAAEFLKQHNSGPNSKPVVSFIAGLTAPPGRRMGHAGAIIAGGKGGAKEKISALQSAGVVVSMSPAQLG
T2 sequence (Q9P2R7 53-463): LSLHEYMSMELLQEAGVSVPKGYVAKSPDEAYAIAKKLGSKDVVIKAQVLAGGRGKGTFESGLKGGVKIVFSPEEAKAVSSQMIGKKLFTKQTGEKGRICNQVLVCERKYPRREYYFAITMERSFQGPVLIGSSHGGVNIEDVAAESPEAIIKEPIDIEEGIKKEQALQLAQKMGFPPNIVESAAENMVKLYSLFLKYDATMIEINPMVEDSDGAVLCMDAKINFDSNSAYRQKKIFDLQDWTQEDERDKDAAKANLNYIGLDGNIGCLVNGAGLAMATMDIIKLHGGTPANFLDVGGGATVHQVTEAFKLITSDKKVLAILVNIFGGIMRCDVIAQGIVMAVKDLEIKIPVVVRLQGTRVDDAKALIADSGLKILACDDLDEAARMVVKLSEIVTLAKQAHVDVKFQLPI
T1 sequence (P53597 28-333): as the sequence (P53597 28-333) above
T1 sequence (Q96I99 38-420): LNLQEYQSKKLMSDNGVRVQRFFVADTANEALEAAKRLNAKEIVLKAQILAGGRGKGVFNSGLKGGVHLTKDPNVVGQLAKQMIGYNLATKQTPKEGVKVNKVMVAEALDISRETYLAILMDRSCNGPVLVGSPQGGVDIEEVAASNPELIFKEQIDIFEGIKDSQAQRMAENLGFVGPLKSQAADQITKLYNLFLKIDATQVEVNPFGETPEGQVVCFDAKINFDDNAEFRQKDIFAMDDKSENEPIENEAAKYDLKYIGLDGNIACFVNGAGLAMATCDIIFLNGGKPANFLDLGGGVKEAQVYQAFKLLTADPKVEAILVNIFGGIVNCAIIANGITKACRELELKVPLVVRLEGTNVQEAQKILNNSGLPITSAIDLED

Km [1]: 0.25 ± 0.03 mM
Km [2]: 6.3 ± 1.9 mM
Compound: O=C(O)CCC(=O)O [succinate]

inhibition at 100 µM [4]: ~30%
Compound: CC(=O)SCCNC(=O)CCNC(=O)[C@H](O)C(C)(C)COP(=O)(O)OP(=O)(O)OC[C@H]1O[C@@H](n2cnc3c(N)ncnc32)[C@H](O)[C@@H]1OP(=O)(O)O [ACoA, acetyl-CoA]

remaining activity at 50 µM [6]: < 10%
Compound: CC(C)(COP(=O)(O)OP(=O)(O)OC[C@H]1O[C@@H](n2cnc3c(N)ncnc32)[C@H](O)[C@@H]1OP(=O)(O)O)[C@@H](O)C(=O)NCCC(=O)NCCSC(=O)C[C@H](O)C(=O)O [malyl-CoA]
KM [5]: CLYBL actively hydrolyzed malyl-CoA into malate and free CoASH

Further lines, the compound ahead of its results:

Compound: C/C1=C2/[N-][C@H]([C@H](CC(N)=O)[C@@]2(C)CCC(=O)NC[C@@H](C)OP(=O)([O-])O[C@H]2C(O)[C@@H](n3cnc4cc(C)c(C)cc43)O[C@@H]2CO)[C@]2(C)N=C(/C(C)=C3N=C(/C=C4N=C1[C@@H](CCC(N)=O)C\4(C)C)[C@@H](CCC(N)=O)[C@]\3(C)CC(N)=O)[C@@H](CCC(N)=O)[C@]2(C)CC(N)=O.[CH2-][C@H]1O[C@@H](n2cnc3c(N)ncnc32)[C@H](O)[C@@H]1O.[Co+3] (stereo partly shown) [AdoCbl, adenosylcobalamin]
absorbance spectrum of loaded enzyme [3]: conversion of the MCM-bound adenosylcobalamin into cob(II)alamin

Compound: C=C(CC(=O)SCCNC(=O)CCNC(=O)[C@H](O)C(C)(C)COP(=O)(O)OP(=O)(O)OC[C@H]1O[C@@H](n2cnc3c(N)ncnc32)[C@H](O)[C@@H]1OP(=O)(O)O)C(=O)O [itaconyl-CoA]
relative activity [7]: Both acyl-CoAs induced a dose-dependent inhibition of MCM (Fig. 5a)
